Results on one substance are retold here after patent US9290544B2, “Methods for making and using molecular switches involving circular permutation” (priority 2004, dated 2016).

Series [1] is described as follows: Spectrophotometric nitrocefin hydrolysis assay of purified RG-200-13, 22° C. It is filed as biochemical. The note with it: for Change in velocity of nitrocefin hydrolysis in presence of sugar: 50 μM nitrocefin; for Change in velocity of nitrocefin hydrolysis in presence of sugar / Km / kcat: pH 7.0, 22° C. Here is the method: (§1) A 6×His tag was added to the C-terminus of RG-200-13 (also termed “RG13” in Examples below) and the fusion was purified as previously described (Guntas and Ostermeier 2004). The protein was purified to approximately 60% purity. The kinetic constants and binding constants were determined from Eadie-Hofstee plots and Eadie plot equivalents, respectively, using a spectrophotometric assay for nitrocefin hydrolysis. Initial rates for nitrocefin hydrolysis were determined from absorbance at 486 nm monitored as a function of time. The enzyme was incubated at the assay temperature in the absence or presence of saccharide for four minutes prior to performing the assay. All assays contained 100 mM sodium phosphate buffer, pH 7.0. The dissociation constant for maltose was determined using change in velocity of nitrocefin hydrolysis as a signal.

Series [2] in a line: Dissociation constant for maltose using change in velocity of nitrocefin hydrolysis as signal. The following applies: 22° C.; read-out: Kd for maltose binding. The protocol: as §1
The nature of series [3]: Hydrolysis of carbenicillin by RG-200-13 with and without 5 mM maltose. The series is classed as biochemical. The following applies: substrate carbenicillin 1 mM; pH 7.0, 22° C. The protocol:
as §1
Maltose binding had the largest effect on cephalothin (of the substrates tested), with the velocity of cephalothin hydrolysis being 32-fold higher in the presence of maltose than in its absence.

A short description of series [4]: Carbenicillin hydrolysis by purified RG13, 25° C. It is filed as biochemical. The note with it: 50 μM carbenicillin. Here is the method: All kinetic assays were performed at 25° C. in the presence of 100 mM sodium phosphate buffer, pH 7.0. Ten μl of enzyme stock was added to 1.59 ml buffer (containing the saccharide, if desired). After incubation for 30 seconds, 0.4 ml of 5× substrate was added and the absorbance at the appropriate wavelength was recorded using the Cary50 UV-VIS spectrophotometer. The wavelength monitored was 486 nm, 240 nm, and 232 nm for nitrocefin, carbenicillin, and ampicillin respectively. From the initial rate of reaction the kinetic constants were determined using Eadie-Hofstee plots. […] The rate data was consistent with a small hysteretic effect (Brennan et al. 1994) and not substrate inhibition as preincubation of the enzyme with the substrate for one minute prevented the lag from occurring upon addition of more substrate. Therefore, the steady state parameters for nitrocefin hydrolysis in the absence of maltose were determined by measuring the rate at 1-2 minutes (well after the lag) and correcting the substrate concentration by subtracting the amount of substrate hydrolyzed. In all cases the extent of reaction at the point the rate was measured was less than 25%. In the presence of maltose, no lag was observed.

Series [5] can be described thus: Apparent dissociation constant for maltose from initial rate of nitrocefin hydrolysis. The series is classed as binding. The note with it: 25° C. Here is the method:
[formula] where ΔF is the change in fluorescence intensity, ΔFmax is the difference in fluorescence between no maltose and saturating amounts of maltose and [L] is the maltose concentration. The fluorescence quenching of RG13(1329W/A96W) upon addition of maltose was insufficient to accurately determine a Kd by this method. The dissociation constant for maltose and RG13(I329W) in the presence of saturating carbenicillin (2 mM) was determined by measuring the initial rate of carbenicillin hydrolysis as a function of maltose concentration. The apparent dissociation constant in the presence of subsaturating concentrations of nitrocefin (25 μM) for all three proteins was determined by measuring the initial rate of nitrocefin hydrolysis as a function of maltose concentration.

In series [6] the test system is DH5α-E cells. The series is described as follows: In vivo characterization: MIC of ampicillin for DH5α-E cells expressing the protein. The note with it: for Minimum Inhibitory Concentration of Ampicillin: LB plates, 37° C., 20 hours. The series is classed as cell-based, E. coli. The protocol: Overnight inoculums of DH5α-E cells expressing RG13, BLA or BLA(W208G) were diluted into LB media and plated on LB plates, either in the absence or presence of 50 μM maltose, in the presence of increasing amounts of ampicillin. Ampicillin was present in the plates at the following concentrations: 0, 2, 4, 8, 16, 32, 64, 128, 256, 512, and 2000 μg/ml. Cells were plated at approximately 1000 CFU (no antibiotic) per plate. The plates were incubated at 37° C. for 20 hours. The minimum inhibitory concentration (MIC) was defined as the lowest ampicillin concentration at which no colonies were present, or that at which the number of colonies present was <1% of the number of colonies at the next lowest level of ampicillin.

Series [7] deals with E. coli cells. As to the kind of experiment: MIC of ampicillin for E. coli cells expressing RG13 from pDIMC8 (Table 11). It is filed as cell-based. From the text:
The signal recognition domain can be altered by rational design or directed evolution to bind to new effectors. With respect to testing mutations predicted by rational design or screening or selecting libraries created for a directed evolution approach, existing switches are used to efficiently test or select for binding to new ligands in vivo. For example, E. coli cells expressing the MBP-BLA switch RG13 from the lac promoter on pDIMC8 have a higher MIC for ampicillin (Amp) in the presence of maltose than in their absence (Table 11) because the BLA enzymatic activity of RG13 (hydrolysis of ampicillin) is higher in the presence of maltose. Thus, for example, mutations created in RG13 (either by rational design or by a stochastic or semi-stochastic method) such that mutant forms of RG13 bind another ligand X (and behave as a switch) can be screened or selected for in vivo. E. coli producing such a new switch will grow at 200 μg/ml Amp in the presence of X but not in the absence of X.

“RG13: MBP-BLA fusion switch MBP[1-316]-BLA[227-286]-GSGGG-BLA[24-226]-S-MBP[319-370]; SEQ ID NO: 61”: the “Change in velocity of nitrocefin hydrolysis in presence of sugar” value in series [1] (Galactose 5 mM) was −3%; in series [1] (Lactose 5 mM), −4%; in series [1] (Maltose 5 mM) it was “+1800%”; in series [1] (Maltotetraitol 5 mM) it was “+400%”; in series [1] (Maltotriose 5 mM) it was “+1700%”; in series [1] (Sucrose 5 mM) it was −5%. Moreover, the “Change in velocity of nitrocefin hydrolysis in presence of sugar” value in series [1] (β-cyclodextrin 3 mM) is recorded as “+150%”. Moreover, the Km is approximately 85 µM in series [1] (nitrocefin, 5 mM maltose) and approximately 325 µM in series [1] (nitrocefin, no maltose). The kcat was approximately 520 s⁻¹ in series [1] (nitrocefin, 5 mM maltose, listed as RG-200-13) and approximately 80 s⁻¹ in series [1] (nitrocefin, no maltose). In addition, in series [1] (nitrocefin, 22° C.), the “Km Ratio (with maltose)/(without maltose)” value is on record as approximately 0.26. In series [1] (nitrocefin, 22° C.), the “kcat Ratio (with maltose)/(without maltose)” value is recorded as approximately 6.5. The Kd is approximately 5 µM in series [2] and 6.7 ± 0.03 µM in series [5]. The “Approximate fold increase in velocity of carbenicillin hydrolysis in the presence of 5 mM maltose” value in series [3] is approximately 4 fold. The “Rate increase with maltose” value in series [4] is on record as 12 fold. Besides, the “Effect of the same concentration (50 μM) of sucrose or glucose on the MIC” value in series [6] is recorded as “did not affect the MIC”. Further, the “Increase of MIC for ampicillin in the presence of 50 μM maltose” value in series [6] was “four-fold”. Moreover, the “Minimum Inhibitory Concentration of Ampicillin” value is 512 µg/mL in series [6] (50 μM maltose) and 128 µg/mL in series [6] (No maltose). Further, the MIC ampicillin amounted to 400 µg/mL in series [7] (supplement to plate: 50 μM maltose); 400 µg/mL in series [7] (supplement to plate: 5 mM maltose); 100 µg/mL in series [7] (supplement to plate: none, LB plates, 37° C.).

One may read the Km as the substrate concentration at which the rate is half of its maximum. In general, kcat refers to the number of substrate molecules converted per active site and unit of time at saturation.
